Patent publication US20260373283A1, “LIPID NANOPARTICLES AND METHODS OF USING THE SAME FOR TREATING CELL PROLIFERATIVE DISEASES AND DISORDERS” (Northwestern University, priority 2022, published 2026)

Experiments:
CT-2A glioma [1] = experiment: survival with Stupp treatment (RT plus TMZ); assay type: in vivo, mouse; conditions: RT+TMZ (3 Gy×3; TMZ 50 mg/kg×3 i.p.); control 27.5 days
Procedure: FIG. 15. B-LNP treatment improves antitumor effects of RT plus concomitant adjuvant TMZ in GBM-bearing mice. Survival curves of C57 mice received intracranial implantation of 5×10^4 CT-2A cells and two administrations of saline, B-LNP/diABZI (0.25 mg/kg diABZI), or a combination of free diABZI and therapeutic antibodies (αPD-L1+αCD47) (referred to as cocktails) through implanted cannula. Selected groups of mice also received RT (3 Gy×3) plus TMZ through intraperitoneal injection (50 mg/kg×3). n=7-10 mice per group. **, p<0.01; determined by Log-rank test for groups with proportional hazards and Renyi statistics for groups with crossing hazards. p values were adjusted by Bonferroni correction.
In vivo B-LNP/diABZI combined with Stupp treatment. C57BL/6 mice with intracranially implanted CT-2A (5×10^4 cells per mouse) were randomly grouped and received a daily dose of brain-focused irradiation at 3 Gy and TMZ at 50 mg per kg intraperitoneally for three consecutive days starting on the seventh day after tumor cell implantation. Certain groups of mice also received B-LNP/diABZI (0.25 mg diABZI per kg) or a combination of free diABZI and therapeutic antibodies (αPD-L1+αCD47) on the ninth and thirteenth day after tumor implantation through intracranially implanted cannula. All mice were followed for their survival following outlined endpoint protocols.

TAMCs [2] = experiment: pro-inflammatory gene expression in TAMCs by qPCR; assay type: cell-based, mouse; conditions: diABZI 200 nM, 6 h
Procedure: (§1) In vitro analysis of diABZI effects on TAMC and T cell. In vitro generated TAMCs (1×10^6 cells/well) in 6-well plate were treated with diABZI at 200 nM. After 6 h of treatment, cells were washed and collected for RNA isolation using the RNEasy Plus Mini Kit (Qiagen). Total RNA was quantified by Nanodrop (Thermo Scientific), and cDNA was synthesized using the iScript cDNA synthesis kit (Bio-Rad). Gene expression was analyzed by quantitative PCR analysis (Bio-Rad). Alternatively, flow cytometric analysis was performed 24 h after treatment. To determine the cytotoxicity of diABZI to T cells, T cells were isolated using mouse T cell isolation kit (STEMCELL Technologies) and seeded at 2×10^5 cells/well in 96-well U bottom plates with the addition of Dynabeads mouse T cell activator CD3/CD28 (Fisher) and IL-2 (PeproTech) at 50 U/ml. Cells were treated with diABZI at 200 nM for 48 h and collected for annexin V assay (BioLegend) using flow cytometry.

TAMCs [3] = experiment: ARG1, CD206, CD86 expression in TAMCs by flow cytometry; assay type: cell-based, mouse; conditions: 24 h post-treatment
Procedure: (§2) BMDM, bone marrow-derived macrophage. […] FIG. 10E, Cytotoxicity of diABZI to T cells was tested by Annexin V staining using flow cytometry 48 h after treatment with diABZI at 200 nM.
as §1

T cells = experiment: cytotoxicity to T cells by Annexin V staining; assay type: cell-based, mouse; conditions: 200 nM, 48 h
Procedure: as §2, §1

CT-2A glioma [4] = experiment: survival, CT-2A-bearing mice, systemic delivery with RT; assay type: in vivo, mouse; conditions: i.v. 2.5 mg/kg diABZI with fractionated RT
Procedure: FIGS. 6A-6F. Systemic nanoparticle delivery of diABZI potentiates anti-glioma effects of RT. FIGS. 6A-6E, C57 mice received intracranial implantation of 7.5×10^4 CT-2A cells and three administrations of saline, free diABZI, or P-LNP/diABZI (2.5 mg/kg diABZI) through intravenous injections. Selected groups of mice received RT (3 Gy×3) as monotherapy or combination therapy. FIG. 6A, Survival curves of CT-2A-bearing C57 mice received different treatments. n=6-7 mice per group. Survival curves were compared using Log-rank test for those with proportional hazards and Renyi statistics for those with crossing hazards with p values adjusted by Bonferroni correction. […] Tumor burden in control and LTS mice were evaluated through H&E staining. FIG. 6C, 100 d post-rechallenge, freshly dissected brains from LTS, age-matched tumor-bearing mice, and age-matched non-tumor control mice were analyzed by flow cytometry for immune composition and CD8^+ T cell phenotypes. Data are represented as mean±SEM; n=5. *, p<0.05; **, p<0.01; determined by Student's t-test. […] FIG. 6D, Histology of the brains was evaluated by H. E. staining. […] FIG. 6E, Freshly dissected brains were analyzed by flow cytometry for immune composition, TAMC, and CD8^+ T cell phenotypes. Data are represented as mean±SEM; n=5. **, p<0.01; ***, p<0.001; ****, p<0.0001; determined by Student's t-test. […]

[5] = system: CD8+ T cells in CT-2A tumors; experiment: T cell infiltration to brain tumors after systemic delivery; assay type: in vivo, mouse; conditions: i.v. 2.5 mg/kg diABZI with fractionated RT
Procedure: FIG. 16. Systemic nanoparticle delivery of diABZI enhances T cell infiltration to brain tumors. C57 mice received intracranial implantation of 7.5×10^4 CT-2A cells, RT (3 Gy×3), and two administrations of saline, free diABZI, or P-LNP/diABZI (2.5 mg/kg diABZI) through intravenous injections. Freshly dissected brains were analyzed by flow cytometry for T cell infiltration. Data are represented as mean±SEM; n=5. *, p<0.05; **, p<0.01; determined by determined by one-way ANOVA with Tukey's multiple comparisons test.
In vivo nanoparticle treatment through systemic delivery. C57BL/6 mice with intracranially implanted CT-2A (7.5×10^4 cells per mouse) were randomly grouped and treated with saline or P-LNP/diABZI (2.5 mg diABZI per kg) through intravenous administration on the ninth, fourteenth, and nineteenth day after tumor implantation. Selected groups of mice also received brain-focused radiotherapy for three consecutive days starting on the sixth day post-tumor implantation. […] Tumor burden was analyzed by hematoxylin and eosin (H&E) staining. Therapeutic effects of P-LNP/diABZI was similarly evaluated in mice implanted with PF8 cells (7.5×10^4 cells per mouse) and received RT and intravenous administrations of saline or P-LNP/diABZI (2.5 mg diABZI per kg) on the eighth and thirteenth day after tumor implantation.

SMILES | median survival (CT-2A glioma [1]) | expression of pro-inflammatory genes in TAMCs (type I IFNs, CCL5, CXCL10) (TAMCs [2]) | ARG1 and CD206 in TAMCs (TAMCs [3]) | CD86 in TAMCs (TAMCs [3]) | cytotoxicity to T cells (T cells) | animal survival in CT-2A glioma model (CT-2A glioma [4]) | CD8+ T cell tumor infiltration [5]
Cn1nnc2c(C(N)=O)ncn2c1=O [TMZ, temozolomide] | 36 days | – | – | – | – | – | –
CCn1nc(C)cc1C(=O)Nc1nc2cc(C(N)=O)cc(OC)c2n1C/C=C/Cn1c(NC(=O)c2cc(C)nn2CC)nc2cc(C(N)=O)cc(OCCCN3CCOCC3)c21 [diABZI] | – | dramatically increased expression of pro-inflammatory genes in TAMCs | reduced levels of immunosuppressive factors ARG1 and CD206 | higher levels of activation factor CD86 | causes cytotoxicity to T cells | not free drugs, led to a dramatically enhanced CD8^+ T cell tumor infiltration (FIG. 16) and animal survival | not free drugs, led to a dramatically enhanced CD8^+ T cell tumor infiltration
